The values that follow come from publication PMC2217055 (The Journal of General Physiology, 1997).

As a reminder, the IC50 is the midpoint of a concentration-inhibition curve. A low value points to greater potency. Usually EC50 stands for the midpoint of the concentration-response curve.

In assay [1] the target is T1, rat olfactory CNG channel subunit 1 (Rattus norvegicus, UniProt Q00195).
T1 sequence (Q00195 1-664): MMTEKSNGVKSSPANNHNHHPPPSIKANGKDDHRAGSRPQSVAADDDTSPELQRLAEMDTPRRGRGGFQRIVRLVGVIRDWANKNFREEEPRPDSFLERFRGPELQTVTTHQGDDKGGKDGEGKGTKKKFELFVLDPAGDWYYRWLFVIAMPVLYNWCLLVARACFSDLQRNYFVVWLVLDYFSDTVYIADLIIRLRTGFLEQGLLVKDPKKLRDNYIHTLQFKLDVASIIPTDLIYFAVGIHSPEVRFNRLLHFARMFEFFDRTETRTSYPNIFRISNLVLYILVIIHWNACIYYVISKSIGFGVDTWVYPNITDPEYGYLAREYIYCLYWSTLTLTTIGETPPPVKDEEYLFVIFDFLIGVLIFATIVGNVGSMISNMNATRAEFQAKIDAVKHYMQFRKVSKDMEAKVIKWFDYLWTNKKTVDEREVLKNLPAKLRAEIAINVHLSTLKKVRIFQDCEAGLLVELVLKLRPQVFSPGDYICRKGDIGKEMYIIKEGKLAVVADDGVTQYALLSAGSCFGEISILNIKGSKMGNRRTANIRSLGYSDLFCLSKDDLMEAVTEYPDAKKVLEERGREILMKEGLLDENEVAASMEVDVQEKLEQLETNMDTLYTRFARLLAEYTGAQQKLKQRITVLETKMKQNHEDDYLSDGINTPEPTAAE
Description: inside-out patch clamp, oocytes, Michaelis-Menten fit of block. Format: cell-based.

Assay [2] deals with T1, rat olfactory CNG channel subunit 1. Description: inside-out patch clamp, cGMP dose-response of current. Format: cell-based. (The patch-clamp technique gives a direct electrical read-out from membranes.)

As for `CCCCNc1ccc(C(=O)OCCN(C)C)cc1` [tetracaine], in assay [1], the midpoint of inhibition, the IC50, lay at 170 ± 22 µM. `Nc1nc2c(ncn2[C@@H]2O[C@@H]3COP(=O)(O)O[C@H]3[C@H]2O)c(=O)[nH]1` [cGMP] showed an EC50 in assay [2] of 2.1 ± 0.12 µM.
